Source: publication PMC10535741, “Styrylpyridinium Derivatives for Fluorescent Cell Imaging” (Pharmaceuticals, 2023)

Legend:
in vitro [1] = type: cell-based, mouse; conditions: mouse
Text: (§1) For selected compounds, 6a–6f, we performed a determination of the cytotoxicity in a wider variety of cancer and non-cancerous cell lines (see Table S2, Supplementary Materials) in order to learn the characteristic features of selectivity or the similarity of biological properties.
(§2) The HT-1080 (human connective tissue fibrosarcoma, ATCC® CCL-121™), MH-22A (mouse hepatocarcinoma, ECACC Cat. No. 96121721), A-549 (human lung carcinoma, ATCC® CCL-185™), NIH3T3 (Swiss Albino mouse embryo fibroblast, ECACC Cat. No. 93061524), Hek293 (human embryonic kidney, ATCC® CRL-1573™), BHK-21 (Syrian hamster kidney, ATCC® CCL-10™), A-431 (human epidermoid carcinoma, ATCC® CRL-1555™), Saos-2 (human osteosarcoma, ATCC® HTB-85™), HeLa (human epitheloid cervix carcinoma, ATCC® CCL-2™), U937 (human myeloid leukaemia, ATCC® CRL-1593.2™), C6 (rat glioma, ATCC® CCL-107™), and B16-F10 (murine melanoma, ATCC® CRL-6475™) cell lines were obtained from the American Type Culture Collection (ATCC) and European Collection of Authenticated Cell Cultures (ECACC).
(§3) HT-1080, MH-22A, A-549, NIH3T3, BHK-21, A-431, HeLa, and B16-F10 cells were cultured in Dulbecco’s Modified Eagle’s Medium (DMEM) with 2 mM glutamine and 10% foetal bovine serum (FBS). Hek293 cells were cultured in Eagle’s Minimum Essential Medium with 10% foetal bovine serum. U937 cells were cultured in RPMI-1640 Medium with 2 mM glutamine and 10% foetal bovine serum. C6 cells were cultured in Ham’s F12 Medium with 2 mM glutamine and 10% foetal bovine serum. Saos-2 cells were cultured in McCoy’s 5a Medium with 2 mM glutamine and 10% foetal bovine serum. The cells were incubated at 37 °C with 5% CO2, 95% air, and complete humidity. Once ~90% confluence was reached, they were detached using 0.05% trypsin/EDTA and counted. The cells were plated at optimally determined densities for the logarithmic phase of growth. These cells were then suspended at a concentration of 4000 cells/well for HT-1080, MH-22A, A-549, NIH3T3, BHK-21, A-431, HeLa, B16-F10, Hek293, and Saos-2 cells and a concentration of 9000 cells/well for U937, C6, Hek293, and GM08402 cells and added onto a 96-well plate. For background absorption, some wells remained cell free, i.e., as a blank control. Cells were incubated for 72 h at 37 °C and 5% CO2 where they were exposed to a media containing serial dilutions of the investigated compounds (n = 3). Cell viability was measured using the 3-(4,5-dimethylthiazol-2-yl)-2,5-diphenyl-tetrazolium bromide (MTT) assay. In brief, after incubating with compounds, the culture medium was removed and fresh medium with 0.2 mg/mL MTT was added to each well of the plate. After incubation (3 h, 37 °C, 5% CO2), the medium with MTT solution was removed and replaced with 200 µL DMSO and 25 µL Sorenson’s glycine buffer (glycine 0.1 M, NaCl 0.1 M, pH: 10.5 with 0.1 M NaOH). The plate was shaken for 15 min at room temperature and the optical density (OD) of the wells was determined using a multichannel spectrophotometer (Thermo Scientific Multiskan EX) at 540 nm. The quantity of the control cells was taken in calculations as 100%. The IC50 value was calculated using the program Graph Pad Prism® 3.0.
(§4) The HT-1080 (human connective tissue fibrosarcoma, ATCC® CCL-121™), MH-22A (mouse hepatocarcinoma, ECACC Cat.No. 96121721), A-549 (human lung carcinoma, ATCC® CCL-185™), NIH 3T3 (mouse Swiss Albino embryo fibroblast, ECACC Cat.No. 93061524), Hek293 (human embryonic kidney, ATCC® CRL-1573™), BHK-21 (hamster Syrian kidney, ATCC® CCL-10™), A-431 (human epidermoid carcinoma, ATCC® CRL-1555™), Saos-2 (human oste osarcoma, ATCC® HTB-85™) HeLa (human epitheloid cervix carcinoma, ATCC® CCL-2™), U937 (human myeloid leukaemia, ATCC® CRL-1593.2™), C6 (rat glioma, ATCC® CCL-107™), B16-F10 (murine melanoma, ATCC® CRL-6475™) cell lines were obtained from American Type Culture Collection (ATCC) and European Collection of Authenticated Cell Cultures […]
(§5) Table S2. […]

[2] = MTT cytotoxicity assay, BHK-21; type: cell-based, Syrian hamster; conditions: Syrian hamster
Text: as §1, §2, §3, §4, §5

[3] = UV/Vis absorption spectra in DMSO; type: physicochemical; conditions: 0.33 mM for 6a,b,d,f,g, 5 mM for 6c,e
Method: The resonance structures of compounds 6d,e (Figure 2a) show a possibly intramolecular charge transfer between the julolidine moiety and the pyridinium unit. The normalised fluorescence spectra of the tested compounds 6a–e and 7a,b in DMSO solution (Figure 2c) and the fluorescence spectra of compound 6e in various media (Figure 2d) were measured using a spectrophotometer multiplate reader (Infinite M1000). The UV/Vis spectra in DMSO solution of compounds 6a–g (Figure 2b) were reordered with a UV/Vis spectrophotometer, and the fluorescence spectra of compound 6e in EtOH–glycerol mixtures (Figure 2e) were collected with a Spectrofluorometer FS5.
The spectral properties (absorption and fluorescence maximum in DMSO solution) of compounds 6a–e and 7a,b, UV spectral data (extinction coefficient (log ε) and absorption maximum), values of Stokes’ shift, and fluorescence quantum yield are presented in Table 3.

in vitro [4] = type: cell-based, human; conditions: human, MTT, 72 h
Text: as §1, §2, §3, §4, §5

[5] = non-cancerous cell line, MTT, 72 h, read-out: Cytotoxicity IC50 NIH3T3
[6] = cancer cell line, read-out: Cytotoxicity IC50 A-431
[7] = cancer cell line, read-out: Cytotoxicity IC50 A-549
[8] = cancer cell line, read-out: Cytotoxicity IC50 HeLa
[9] = cancer cell line, read-out: Cytotoxicity IC50 Saos-2
[10] = cancer cell line, read-out: Cytotoxicity IC50 U937
[11] = non-cancerous cell line, read-out: Cytotoxicity IC50 Hek-293

| SMILES | IC50 at 72 h (in vitro [1]) [µg/mL] | IC50 at 72 h [2] [µg/mL] | abs. max., λ, nm [3] [nm] | log ε [3] | IC50 at 72 h (in vitro [1]; [5]) [µg/mL] | IC50 at 72 h (in vitro [4]; [6]) [µg/mL] | IC50 at 72 h (in vitro [4]; [7]) [µg/mL] | IC50 at 72 h (in vitro [4]; [8]) [µg/mL] | IC50 at 72 h (in vitro [4]; [9]) [µg/mL] | IC50 at 72 h (in vitro [4]; [10]) [µg/mL] | IC50 at 72 h (in vitro [4]; [11]) [µg/mL] | IC50 at 72 h ([2]; non-cancerous cell line, MTT, 72 h, read-out: Cytotoxicity IC50 BHK-21) [µg/mL] |
| --- | --- | --- | --- | --- | --- | --- | --- | --- | --- | --- | --- | --- |
| CCCCCCCCCCCCCCCC[n+]1ccc(C=CC=Cc2ccc(OC)cc2)cc1.[Br-] [Compound 6c, 1-hexadecyl-4-(4-(4-methoxyphenyl)buta-1,3-dien-1-yl)pyridin-1-ium bromide] | 0.24 | 0.35 | 408 | 4.26 |  |  |  |  |  |  |  |  |
| CCCCCCCCCCCC[n+]1ccc(C=Cc2cc3c4c(c2)CCCN4CCC3)cc1.[Br-] [Compound 6d, 1-dodecyl-4-(2-(2,3,6,7-tetrahydro-1H,5H-pyrido[3,2,1-ij]quinolin-9-yl)vinyl)pyridin-1-ium bromide] |  | 0.082 |  |  | 0.056 | 0.098 | 0.055 | 0.055 | 0.79 | 0.044 | 0.012 |  |
| CCCCCCCCCCCC[n+]1ccc(C=Cc2cc(OC)c(OC)c(OC)c2)cc1.[Br-] [Compound 6a, 4-(3,4,5-trimethoxystyryl)-N-dodecylpyridinium bromide] |  |  | 384 | 5.46 | 1.23 | 0.87 | 0.87 | 0.59 | 0.37 | 1.01 | 0.22 | 1.01 |
| CCCCCCCCCCCCCCCC[n+]1ccc(C=Cc2cc(OC)c(OC)c(OC)c2)cc1.[Br-] [Compound 6b] |  |  | 385 | 5.23 |  |  |  |  |  |  |  |  |
| CCCCCCCCCCCCCCCC[n+]1ccc(C=CC=Cc2cc3c4c(c2)CCCN4CCC3)cc1.[Br-] [Compound 6e, 1-hexadecyl-4-(4-(2,3,6,7-tetrahydro-1H,5H-pyrido[3,2,1-ij]quinolin-9-yl)buta-1,3-dien-1-yl)pyridin-1-ium bromide] |  | 2.7 | 520 | 4.02 | 3.2 | 1.9 | 3 | 1.3 | 3.6 | 2.4 | 1.5 |  |
